The source of these data is patent US8614327B2 (Vertex Pharmaceuticals Incorporated, priority 2004, dated 2013).

Where only a bound is given, the exact number is not on record here.

The target of this experiment is T1, ΔF508-CFTR (Homo sapiens, UniProt P13569, DEL508-508).
T1 construct: expressed in transfected cells
The experiment is described as follows: Membrane potential optical (FRET/VIPR) assay, identification of potentiator compounds. Conditions: Table 3, assay not given; for % Activity: relative efficacy. The format is cell-based. In a few lines:
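Double-addition potentiator screen: compound delivered in gluconate-substituted Cl^--free medium, membrane potential followed via CC2-DMPE/DiSBAC2(3) FRET on VIPR. Cells were ΔF508-CFTR-expressing NIH3T3 mouse fibroblasts, held 2 h at 37° C. then 24 h at 27° C. before assay.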

Broadly, the EC50 is the concentration giving half of the maximal effect.

T1 sequence (P13569 with tags, fused parts or gaps DEL508-508): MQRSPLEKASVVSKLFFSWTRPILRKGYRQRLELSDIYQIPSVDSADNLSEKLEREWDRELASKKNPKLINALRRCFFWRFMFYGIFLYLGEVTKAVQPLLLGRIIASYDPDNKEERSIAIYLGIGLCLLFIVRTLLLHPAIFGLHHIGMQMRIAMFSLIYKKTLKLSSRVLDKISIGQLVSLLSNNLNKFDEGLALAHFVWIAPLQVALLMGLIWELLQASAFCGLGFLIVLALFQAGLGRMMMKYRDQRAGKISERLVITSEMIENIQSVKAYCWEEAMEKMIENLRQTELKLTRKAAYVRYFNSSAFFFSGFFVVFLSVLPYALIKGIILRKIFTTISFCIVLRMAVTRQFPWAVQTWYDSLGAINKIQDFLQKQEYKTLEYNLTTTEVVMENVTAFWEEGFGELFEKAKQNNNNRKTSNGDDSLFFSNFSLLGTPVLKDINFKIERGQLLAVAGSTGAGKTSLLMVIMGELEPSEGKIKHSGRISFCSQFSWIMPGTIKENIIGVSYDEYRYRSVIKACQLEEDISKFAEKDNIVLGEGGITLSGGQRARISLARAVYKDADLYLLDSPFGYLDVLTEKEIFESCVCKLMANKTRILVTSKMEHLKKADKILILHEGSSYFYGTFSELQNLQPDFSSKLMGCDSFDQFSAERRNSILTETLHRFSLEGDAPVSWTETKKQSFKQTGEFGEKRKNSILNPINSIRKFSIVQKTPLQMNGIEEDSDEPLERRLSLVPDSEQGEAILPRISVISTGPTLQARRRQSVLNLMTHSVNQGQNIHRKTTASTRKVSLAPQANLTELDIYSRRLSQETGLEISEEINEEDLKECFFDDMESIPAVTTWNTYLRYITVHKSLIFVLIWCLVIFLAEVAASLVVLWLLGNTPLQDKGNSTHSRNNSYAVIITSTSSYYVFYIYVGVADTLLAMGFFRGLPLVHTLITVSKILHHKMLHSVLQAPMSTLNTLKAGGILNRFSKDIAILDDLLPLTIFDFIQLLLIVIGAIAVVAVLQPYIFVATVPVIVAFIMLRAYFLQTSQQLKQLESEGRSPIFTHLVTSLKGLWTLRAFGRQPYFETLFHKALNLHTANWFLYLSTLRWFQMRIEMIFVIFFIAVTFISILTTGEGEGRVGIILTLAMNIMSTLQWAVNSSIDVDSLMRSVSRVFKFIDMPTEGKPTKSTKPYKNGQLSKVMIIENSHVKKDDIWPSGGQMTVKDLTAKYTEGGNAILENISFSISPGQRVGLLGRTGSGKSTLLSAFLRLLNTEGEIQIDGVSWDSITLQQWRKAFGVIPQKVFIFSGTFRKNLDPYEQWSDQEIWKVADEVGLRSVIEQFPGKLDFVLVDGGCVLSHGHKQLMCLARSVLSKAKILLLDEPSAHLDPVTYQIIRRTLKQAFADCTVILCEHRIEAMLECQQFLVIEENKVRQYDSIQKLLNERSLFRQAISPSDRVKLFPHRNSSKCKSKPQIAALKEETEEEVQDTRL

For the compound `O=C(Nc1cc(Cl)cc(NS(=O)(=O)CCN2CCCCC2)c1)c1c[nH]c2ccccc2c1=O` [Compound 133, N-[3-chloro-5-[2-(1-piperidyl)ethylsulfonylamino]phenyl]-4-oxo-1H-quinoline-3-carboxamide], the concentration giving a half-maximal response (EC50) was 10 to 25 µM and the “% Activity” value is reported as “++ (between 25% to 100%)”.

For `C[S+]([O-])c1ccc(-c2ccccc2NC(=O)c2c[nH]c3ccccc3c2=O)cc1` (stereo not shown) [Compound 134, N-[2-(4-methylsulfinylphenyl)phenyl]-4-oxo-1H-quinoline-3-carboxamide], the half-maximal effective concentration (EC50) is less than 10 µM and the “% Activity” value is given as “++ (between 25% to 100%)”.

For `O=C(Nc1ccccc1-c1ccc2c(c1)OCO2)c1c[nH]c2ccccc2c1=O` [Compound 135, N-(2-benzo[1,3]dioxol-5-ylphenyl)-4-oxo-1H-quinoline-3-carboxamide], the concentration for a half-maximal effect (EC50) was less than 10 µM and the “% Activity” value is “+++ (>100%)”.

Regarding `CC(C)(C)c1cc(NC(=O)c2c[nH]c3ccccc3c2=O)c(O)c(C(C)(C)C)c1` [Compound 136, N-(2-hydroxy-3,5-ditert-butyl-phenyl)-4-oxo-1H-quinoline-3-carboxamide], the concentration giving a half-maximal response (EC50) was less than 10 µM and the “% Activity” value is given as “++ (between 25% to 100%)”.

Turning to `CN(c1ccc(F)cc1)S(=O)(=O)c1ccc2[nH]cc(C(=O)Nc3cc(O)c(C(C)(C)C)cc3C(C)(C)C)c(=O)c2c1` [Compound 137, 6-[(4-fluorophenyl)-methyl-sulfamoyl]-N-(5-hydroxy-2,4-ditert-butyl-phenyl)-4-oxo-1H-quinoline-3-carboxamide], the concentration for a half-maximal effect (EC50) is less than 10 µM and the “% Activity” value was “++ (between 25% to 100%)”.

In the case of `O=C(Nc1ccccc1-c1cc(F)cc(F)c1)c1c[nH]c2ccccc2c1=O` [Compound 138, N-[2-(3,5-difluorophenyl)phenyl]-4-oxo-1H-quinoline-3-carboxamide], the “% Activity” value is recorded as “++ (between 25% to 100%)”.

In the case of `O=C(Nc1ccccc1-c1ccc(Cl)cc1Cl)c1c[nH]c2ccccc2c1=O` [Compound 139, N-[2-(2,4-dichlorophenyl)phenyl]-4-oxo-1H-quinoline-3-carboxamide], the “% Activity” value is on record as “++ (between 25% to 100%)”.

For the compound `O=C(Nc1ccc(C2CCCCC2)cc1)c1c[nH]c2ccccc2c1=O` [Compound 140, N-(4-cyclohexylphenyl)-4-oxo-1H-quinoline-3-carboxamide], the “% Activity” value is reported as “++ (between 25% to 100%)”.

For `CCOC(=O)Nc1cc(NC(=O)c2c[nH]c3ccccc3c2=O)ccc1C` [Compound 141, [2-methyl-5-[(4-oxo-1H-quinolin-3-yl)carbonylamino]phenyl]aminoformic acid ethyl ester], the 50% effective concentration (EC50) fell in the range of 10 to 25 µM and the “% Activity” value was “++ (between 25% to 100%)”.

With `CCC(C)c1ccccc1NC(=O)c1c[nH]c2ccccc2c1=O` (stereo not shown) [Compound 142, 4-oxo-N-(2-sec-butylphenyl)-1H-quinoline-3-carboxamide], the EC50 was less than 10 µM and the “% Activity” value is listed as “++ (between 25% to 100%)”.

Take `CC(C)(C)c1cc(F)c(NC(=O)c2c[nH]c3ccccc3c2=O)cc1O` [Compound 143, N-(2-fluoro-5-hydroxy-4-tert-butyl-phenyl)-4-oxo-1H-quinoline-3-carboxamide]: the EC50 was less than 10 µM and the “% Activity” value is “++ (between 25% to 100%)”.

In the case of `O=C(Nc1cccc(O)c1)c1c[nH]c2ccccc2c1=O` [Compound 144, N-(3-hydroxyphenyl)-4-oxo-1H-quinoline-3-carboxamide], the EC50 was less than 10 µM and the “% Activity” value is listed as “++ (between 25% to 100%)”.

As to `CCOC(=O)c1cc(NC(=O)c2c[nH]c3ccccc3c2=O)cc2[nH]ccc12` [Compound 145, 6-[(4-oxo-1H-quinolin-3-yl)carbonylamino]-1H-indole-4-carboxylic acid ethyl ester], the “% Activity” value is “++ (between 25% to 100%)”.

`O=C(Nc1cccn2ncnc12)c1c[nH]c2ccccc2c1=O` [Compound 146, 4-oxo-N-(1,7,9-triazabicyclo[4.3.0]nona-2,4,6,8-tetraen-5-yl)-1H-quinoline-3-carboxamide]: the concentration giving a half-maximal response (EC50) lay within 25 to 60 µM and the “% Activity” value was “+ (<25%)”.

Take `O=C(Nc1cccnc1Oc1ccc(F)cc1)c1c[nH]c2ccccc2c1=O` [Compound 147, N-[2-(4-fluorophenoxy)-3-pyridyl]-4-oxo-1H-quinoline-3-carboxamide]: the EC50 was less than 10 µM and the “% Activity” value was “++ (between 25% to 100%)”.

Consider `O=C(Nc1cc2[nH]ccc2cc1C(=O)N1CCCCC1)c1c[nH]c2ccccc2c1=O` [Compound 148, 4-oxo-N-[5-(1-piperidylcarbonyl)-1H-indol-6-yl]-1H-quinoline-3-carboxamide], for which the concentration for a half-maximal effect (EC50) was less than 10 µM and the “% Activity” value is on record as “++ (between 25% to 100%)”.

For `CCc1ccc(NC(=O)c2c[nH]c3ccccc3c2=O)cc1NC(C)=O` [Compound 149, N-(3-acetylamino-4-ethyl-phenyl)-4-oxo-1H-quinoline-3-carboxamide], the concentration for a half-maximal effect (EC50) lay within 10 to 25 µM and the “% Activity” value is on record as “++ (between 25% to 100%)”.

For the compound `O=C(Nc1ccc(C(O)(C(F)(F)F)C(F)(F)F)cc1)c1c[nH]c2ccccc2c1=O` [Compound 150, 4-oxo-N-[4-[2,2,2-trifluoro-1-hydroxy-1-(trifluoromethyl)ethyl]phenyl]-1H-quinoline-3-carboxamide], the EC50 is less than 10 µM and the “% Activity” value is reported as “++ (between 25% to 100%)”.

In the case of `Cc1csc(-c2ccccc2NC(=O)c2c[nH]c3ccccc3c2=O)c1` [Compound 151, N-[2-(4-methyl-2-thienyl)phenyl]-4-oxo-1H-quinoline-3-carboxamide], the 50% effective concentration (EC50) is less than 10 µM and the “% Activity” value is recorded as “++ (between 25% to 100%)”.

Turning to `O=C(Nc1ccc2[nH]c(=O)oc2c1)c1c[nH]c2ccccc2c1=O` [Compound 152, 4-oxo-N-(2-oxo-3H-benzooxazol-6-yl)-1H-quinoline-3-carboxamide], the EC50 lay in the range of 25 to 60 µM and the “% Activity” value is “+ (<25%)”.

For the compound `CCC(CC)(c1cc(F)c(NC(=O)c2cnc3ccccc3c2O)cc1O)C(C)(C)C` [Compound 153, N-[4-(1,1-diethyl-2,2-dimethyl-propyl)-2-fluoro-5-hydroxy-phenyl]-4-hydroxy-quinoline-3-carboxamide], the EC50 is less than 10 µM and the “% Activity” value was “++ (between 25% to 100%)”.

Take `O=C(Nc1cc(C(F)(F)F)cc(C(F)(F)F)c1)c1c[nH]c2ccccc2c1=O` [Compound 154, N-[3,5-bis(trifluoromethyl)phenyl]-4-oxo-1H-quinoline-3-carboxamide]: the EC50 was 25 to 60 µM and the “% Activity” value is “+ (<25%)”.

Consider `O=C(Nc1ccccn1)c1c[nH]c2ccccc2c1=O` [Compound 155, 4-oxo-N-(2-pyridyl)-1H-quinoline-3-carboxamide], for which the concentration for a half-maximal effect (EC50) lay in the range of 25 to 60 µM and the “% Activity” value is “+ (<25%)”.

Regarding `O=C(Nc1ccccc1-c1ccccc1OC(F)(F)F)c1c[nH]c2ccccc2c1=O` [Compound 156, 4-oxo-N-[2-[2-(trifluoromethoxy)phenyl]phenyl]-1H-quinoline-3-carboxamide], the EC50 was less than 10 µM and the “% Activity” value is recorded as “++ (between 25% to 100%)”.

As for `CCc1ccc(NC)cc1NC(=O)c1c[nH]c2ccccc2c1=O` [Compound 157, N-(2-ethyl-5-methylamino-phenyl)-4-oxo-1H-quinoline-3-carboxamide], the EC50 is less than 10 µM and the “% Activity” value was “++ (between 25% to 100%)”.
